Source: US20060229433A1, “Modified antiviral peptides with increased activity and cell membrane affinity” (priority 2003, published 2006)
pIC50: −log10 of the molar value. Square brackets hold non-standard residues; d marks the D form. Peptide text beside a SMILES is read from it. Ava = NCCCCC(=O)O

Columns and labels:
[1] = test system: HIV-1 NL 4-3; assay: Infection of human peripheral blood lymphocytes (PBL) with NL 4-3 strain, p24 ELISA; type: cell-based
Description: Peripheral blood lymphocytes from an HIV-1 negative donor were grown as described earlier, maintained in RPMI 1640 with ultraglutamine, supplemented with IL2 (20 μg/ml), penicillin (100 U/ml), streptomycin (100 μg/ml), and 10% heat-inactivated fetal calf serum. Cells were stimulated three days in the medium supplemented with phytohemagglutinin (20 U/ml PHA P, DIFCO, Detroit Mich.).
Samples of 10^6/100 μL PBL cells were preincubated in 96-well microtiter plates in culture medium containing various concentrations of peptides. After a 1 h treatment at 37° C., 100 μl of diluted viral solution of HIV-1 was added. The cells were exposed to the virus for 1 h at 37° C. at a multiplicity of infection of 1000 TCID50 per ml. The cells were washed three times and cultured at […] of medium with the treatment in 24-well plates incubated at 37° in culture medium with the peptides in 5% CO2. The treatment was permanent before virus adsorption, during virus adsorption and after infection. The PBL culture medium was replaced every 3-4 days during three weeks always in the presence of peptide. The cell viability was assessed by cell counts and trypan-blue exclusion assay. The viral production in the culture supernatant was quantified by p24 ELISA test, as described earlier. All the experiments have been done in blind-tests. Tests have been done in duplicate.

[2] = test system: HIV-1 89.6 subtype B dualtropic (X4R5); conditions: PBMC, Table 5
[3] = test system: HIV-1 NL 4-3; assay: HIV-1 infection of C8166 cells (syncytia formation, p24 ELISA) with HIV-1 NL 4-3; type: cell-based; design: key: ++, +, (+), (+)− and − represent decreasing numbers of syncitia formed.; ++, +, (+), (+)− and − represent decreasing numbers of syncitia formed.; ++, +, (+), (+)− and − represent decreasing numbers of syncitia formed.; ++, +, (+), (+)− and − represent decreasing numbers of syncitia formed.; ++, +, (+), (+)− and − represent decreasing numbers of syncitia formed; conditions: Table 2
Description: HIV-1 NL 4-3 isolate (Adachi et al., 1986; Barré-Sinoussi et al., 1983) and highly cytopathic Zairian HIV-1 NDK isolate (Ellrodt et al., 1984) was propagated in permissive CEM cells (Nara et al., 1987). Uninfected CEM and C8166 (Salahuddin et al., 1983) were maintained in RPMI 1640 (R10) with ultraglutamine (cambrex, Vervier, Belgium), penicillin (100 U/ml), streptomycin (100 μg/ml), and 10% heat-inactivated fetal calf serum (Cambrex).
Samples of 3×10^5/100 μL C8166 cells were preincubated in 96-well microtiter plates in culture medium containing various concentrations of peptide. After a 1 h treatment at 37° C., 100 μl of diluted viral solution of HIV-1 was added. The cells were exposed to the virus for 1 h at 37° C. at a multiplicity of infection of 1000 TCID50 per ml. The cells were washed three times and cultured at 3×10^5/ml of R10 with the treatment in 24-well plates incubated at 37° C. C8166 culture medium was replaced at Day-4 post-infection. The treatment was permanent before virus adsorption, during virus adsorption and after infection. Assays on C8166 cells have been performed at least twice and in duplicate. Toxicity was evaluated by daily cell count and trypan-blue exclusion assay. Infection of C8166 T-cells with HIV-1 was assessed by virus-induced cytopathic effects (syncytia formation) and by quantification of cell free p24 viral protein in the culture supernatants. Measurements of HIV-1 p24^gag concentration in the culture supernatants were achieved by ELISA (ALLIANCE® HIV-1 p24 kit, Perkin Elmer, life sciences, USA).

Row | Structure (SMILES) | pIC50 ([1]; PBL, NL 4-3 strain, Table 4) | IC100 ([1]; PBL, NL 4-3 strain, Table 4) | IC100 ([1]; text b43 on PBL results) | pIC50 [2] | IC100 [2] | IC100 ([1]; on PBL) | Day 4 syncitia formed ([3]; 1 μM) | Day 5 syncitia formed ([3]; 1 μM) | Day 6 syncitia formed ([3]; 1 μM) | Day 7 syncitia formed ([3]; 1 μM) | Day 4 syncitia formed ([3]; 5 μM) | Day 5 syncitia formed ([3]; 5 μM) | Day 6 syncitia formed ([3]; 5 μM) | Day 7 syncitia formed ([3]; 5 μM)
1 | C[C@H](NC(=O)[C@H](CCCNC(=N)N)NC(=O)CNC(=O)[C@@H]1CCCN1C(=O)CN)C(=O)N[C@@H](Cc1ccccc1)C(=O)NCCCCC(=O)O [SPC3 monomer valeric acid, GPGRAF-NHCH2CH2CH2CH2COOH] (H-GPGRAF[Ava]-OH; N-terminus assumed) | 7.70 | 0.1 µM | 0.1 µM | 8.00 | 0.5 µM |  |  |  |  |  |  |  |  | 
2 | C[C@H](NC(=O)[C@H](CCCNC(=N)N)NC(=O)CNC(=O)[C@@H]1CCCN1C(=O)CN)C(=O)N[C@@H](Cc1ccccc1)C(=O)NCCCC[C@H](NC(=O)[C@H](Cc1ccccc1)NC(=O)[C@H](C)NC(=O)[C@H](CCCNC(=N)N)NC(=O)CNC(=O)[C@@H]1CCCN1C(=O)CN)C(=O)NCCCC[C@H](NC(=O)[C@H](CCCCNC(=O)[C@H](Cc1ccccc1)NC(=O)[C@H](C)NC(=O)[C@H](CCCNC(=N)N)NC(=O)CNC(=O)[C@@H]1CCCN1C(=O)CN)NC(=O)[C@H](Cc1ccccc1)NC(=O)[C@H](C)NC(=O)[C@H](CCCNC(=N)N)NC(=O)CNC(=O)[C@@H]1CCCN1C(=O)CN)C(=O)NCCCC[C@H](NC(=O)[C@H](CCCCNC(=O)[C@H](CCCCNC(=O)[C@H](Cc1ccccc1)NC(=O)[C@H](C)NC(=O)[C@H](CCCNC(=N)N)NC(=O)CNC(=O)[C@@H]1CCCN1C(=O)CN)NC(=O)[C@H](Cc1ccccc1)NC(=O)[C@H](C)NC(=O)[C@H](CCCNC(=N)N)NC(=O)CNC(=O)[C@@H]1CCCN1C(=O)CN)NC(=O)[C@H](CCCCNC(=O)[C@H](Cc1ccccc1)NC(=O)[C@H](C)NC(=O)[C@H](CCCNC(=N)N)NC(=O)CNC(=O)[C@@H]1CCCN1C(=O)CN)NC(=O)[C@H](Cc1ccccc1)NC(=O)[C@H](C)NC(=O)[C@H](CCCNC(=N)N)NC(=O)CNC(=O)[C@@H]1CCCN1C(=O)CN)C(=O)NCCC(=O)O [SPC3, (GPGRAF)8-K4-K2-K-βA-OH, reference compound] | 8.00 | 0.1 µM | 2 µM | 7.22 | 0.5 µM | 2 µM | (+) | + | ++ | ++ | − | (+) | + | ++
